Laboratory results taken from ChEMBL document CHEMBL4834425, “Spirombandakamine A3 and Cyclombandakamines A8 and A9, Polycyclic Naphthylisoquinoline Dimers, with Antiprotozoal Activity, from a Congolese Ancistrocladus Plant” (J Nat Prod, 2021).
pIC50: −log10 of the molar value.

What was measured:
L6 = assay: Cytotoxicity against rat L6 cells measured after 72 hrs by alamar blue dye based fluorometric analysis; format: cell-based; details: L6, 72 h
Trypanosoma cruzi = assay: Antitrypanosomal activity against amastigote form of Trypanosoma cruzi Tulahuen C4 expressing LacZ infected in rat L6 cells assessed as inhibition of parasite growth incubated for 96 hrs by CPRG/Nonidet reagent based […] analysis; format: functional, organism-based; details: Tulahuen C4, L6, 96 h
[1] = Selectivity index, ratio of IC50 for cytotoxicity against rat L6 cells to IC50 for antiplasmodial activity against Plasmodium falciparum NF54; format: toxicity, cell-based; details: read-out: Ratio IC50
Leishmania donovani = assay: Antileishmanial activity against Leishmania donovani MHOM/ET/67/L82 amastigotes assessed as inhibition of parasite growth measured after 72 hrs by alamar blue dye based fluorometric analysis; format: functional, organism-based; details: MHOM/ET/67/L82, 72 h
[2] = system: Trypanosoma brucei rhodesiense; assay: Antitrypanosomal activity against bloodstream form of Trypanosoma brucei rhodesiense STIB900 assessed as inhibition of parasite growth incubated for 72 hrs by Alamar blue dye-based fluorometric analysis; format: functional, organism-based; details: STIB900, 72 h
Plasmodium falciparum = assay: Antiplasmodial activity against Plasmodium falciparum NF54 erythrocytic stages assessed as inhibition of parasite growth after 48 hrs by liquid scintillation counting method; format: functional, organism-based; details: NF54, 48 h

Row | Structure (SMILES) | pIC50 (Trypanosoma cruzi) | pIC50 [2] | pIC50 (L6) | selectivity ratio [1] | pIC50 (Leishmania donovani) | pIC50 (Plasmodium falciparum)
1 | COc1ccc2c3c1C(=O)C[C@]1(C)Oc4c(cc(-c5c(O)cc(OC)c6c5C[C@H](C)N(C)[C@@H]6C)c5cc(C)cc(OC)c45)[C@]31Oc1cc(OC)c3c(c1-2)C[C@@H](C)N[C@H]3C | 4.45 | 5.39 | 4.71 | 127 | 4.55 | 6.82
2 | COc1ccc2c3c1C(=O)C[C@]1(C)Oc4c(cc(-c5c(O)cc(OC)c6c5C[C@H](C)N(C)[C@@H]6C)c5cc(C)cc(OC)c45)[C@]31Oc1cc(OC)c3c(c1-2)C[C@@H](C)N[C@@H]3C | 4.63 | 6.13 | 4.77 | 282 | 4.27 | 7.23
3 | CCCCCCCCCCCCCCCCOP(=O)([O-])OCC[N+](C)(C)C [MILTEFOSINE] |  |  |  |  | 6.41 | 

More lines, main results first:

Row | pIC50 (Trypanosoma cruzi) | pIC50 [2] | Structure (SMILES) | pIC50 (L6) | selectivity ratio [1] | pIC50 (Leishmania donovani) | pIC50 (Plasmodium falciparum)
4 | 4.76 | 6.53 | COc1ccc2c3c1C(=O)C[C@]31c3cc(-c4c(O)cc(OC)c5c4C[C@@H](C)N[C@@H]5C)c4cc(C)cc(OC)c4c3O[C@]1(C)Oc1cc(OC)c3c(c1-2)C[C@@H](C)N(C)[C@@H]3C | 4.71 | 272 | < 4.00 | 7.15
5 | 5.56 |  | O=C(Cn1ccnc1[N+](=O)[O-])NCc1ccccc1 [BENZNIDAZOLE] |  |  |  | 
